Measured values taken from PubChem BioAssay AID651732 (NMMLSC, 2012).
Calls of active or inactive are those of the source.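 How the source made its calls: active means cytotoxic compounds whose viability ratio versus DMSO control falls below 0.85 at 10 µM; inactive means the rest.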

Test system: U937 viability, trypan blue exclusion, 24 h
Assay: U937 cell cytotoxicity, late-stage follow-up, cytotoxicity control for Cdc42 probe extension project, trypan blue exclusion (AID 651732)
Conditions: at 30 µM (top of the series)

Q: `COc1ccc(C2CC(c3ccccc3)=NN2c2ccc(S(N)(=O)=O)cc2)cc1` (stereo unspecified) was tested. Which viability ratio to DMSO did it give?
A: 0.19 (inactive)
